Columns and labels:
Type in all cases: cell-based
[1] = molecular target: EP2 subtype of the human PGE2 receptor (Homo sapiens, UniProt P43116); test: cAMP antagonism test on the human EP2 receptor (HTRF cAMP detection); conditions: hEP2 receptor, read-out: Antagonism hEP2 IC50
How it was run: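 Read-out is a competitive HTRF for cAMP: lysate cAMP displaces cAMP-d2 from Eu cryptate-labelled antibody, and antagonism raises the 665/620 nm ratio. Compound (0.8 nM–16.5 μM) added to EP2 cells 20 min at RT before 60 min PGE2 challenge (3× stock 1.5 nM) with IBMX, followed by 20 min lysis.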

[2] = molecular target: EP4 subtype of the human PGE2 receptor (Homo sapiens, UniProt P35408); test: cAMP antagonism test on the human EP4 receptor (HTRF cAMP detection); conditions: selectivity towards hEP4, IC50 measured by cAMP antagonism test
How it was run: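 Competitive HTRF cAMP read-out (cAMP-d2 vs Eu-cryptate anti-cAMP antibody, 665/620 nm ratio) on lysed human EP4 cells. Compound (0.8 nM–16.5 μM) applied 20 min at RT before 60 min PGE2 challenge (3× solution 0.3 nM, IBMX present); 20 min lysis precedes reading.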

[3] = molecular target: T1, human PGD receptor (Homo sapiens, UniProt Q13258); test: cAMP antagonism test on the human prostaglandin D receptor (HTRF cAMP detection); conditions: selectivity towards hDP, IC50 measured by cAMP antagonism test
T1 sequence (Q13258 1-359): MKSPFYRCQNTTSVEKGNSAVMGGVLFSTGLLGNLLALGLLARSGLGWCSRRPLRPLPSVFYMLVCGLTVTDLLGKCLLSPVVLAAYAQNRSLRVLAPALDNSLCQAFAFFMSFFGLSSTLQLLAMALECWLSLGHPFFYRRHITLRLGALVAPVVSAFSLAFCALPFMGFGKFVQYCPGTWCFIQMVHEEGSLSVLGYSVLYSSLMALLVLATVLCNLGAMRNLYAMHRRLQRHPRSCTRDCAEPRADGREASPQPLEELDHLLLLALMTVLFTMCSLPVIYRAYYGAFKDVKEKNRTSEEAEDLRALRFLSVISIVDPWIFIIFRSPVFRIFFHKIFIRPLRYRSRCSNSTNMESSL
How it was run: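 HTRF competition read-out (665/620 nm ratio ×10000), where higher FRET means less cAMP, i.e. antagonism. Compounds (0.8 nM–16.5 μM) were preincubated 20 min at RT with cells and cAMP-d2, PGD2 (3× solution, 6 nM) in IBMX-containing PBS added for 30 min at RT, then cells lysed 20 min.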

EP4 subtype of the human PGE2 receptor, sequence (P35408 whole entry): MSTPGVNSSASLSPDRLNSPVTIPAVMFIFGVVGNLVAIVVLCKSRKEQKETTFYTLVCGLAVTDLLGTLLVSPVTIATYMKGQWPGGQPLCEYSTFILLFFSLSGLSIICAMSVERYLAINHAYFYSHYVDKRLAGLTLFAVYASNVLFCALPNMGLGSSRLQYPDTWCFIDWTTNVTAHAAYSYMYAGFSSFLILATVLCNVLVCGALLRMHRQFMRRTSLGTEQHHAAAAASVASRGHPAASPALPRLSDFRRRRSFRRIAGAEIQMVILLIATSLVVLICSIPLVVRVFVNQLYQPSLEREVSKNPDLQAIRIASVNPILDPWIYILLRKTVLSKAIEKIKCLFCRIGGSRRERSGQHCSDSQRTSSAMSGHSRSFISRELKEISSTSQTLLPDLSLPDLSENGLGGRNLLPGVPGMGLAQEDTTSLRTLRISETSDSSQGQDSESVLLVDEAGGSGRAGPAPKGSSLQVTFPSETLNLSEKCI
EP2 subtype of the human PGE2 receptor, sequence (P43116 whole entry): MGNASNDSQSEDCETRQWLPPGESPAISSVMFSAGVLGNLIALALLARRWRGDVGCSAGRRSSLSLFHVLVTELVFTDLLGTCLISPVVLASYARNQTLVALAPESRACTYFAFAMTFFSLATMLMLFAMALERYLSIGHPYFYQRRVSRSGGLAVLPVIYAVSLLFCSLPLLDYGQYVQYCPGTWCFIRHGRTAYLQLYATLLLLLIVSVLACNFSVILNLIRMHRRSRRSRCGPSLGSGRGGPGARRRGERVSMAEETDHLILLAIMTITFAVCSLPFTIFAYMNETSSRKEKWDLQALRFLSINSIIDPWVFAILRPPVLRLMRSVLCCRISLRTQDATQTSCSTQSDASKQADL

| SMILES | IC50 [1] | Selectivity hEP2/hEP4 [2] | Selectivity hEP2/hDP [3] |
| --- | --- | --- | --- |
| Cc1c(C(=O)NCC(F)(F)F)ccc2nn(CC3CN(C(=O)c4ccc(Oc5ccc(Cl)cc5)cc4)C3)cc12 [Example 165, 2-({1-[4-(4-chlorophenoxy)benzoyl]azetidin-3-yl}methyl)-4-methyl-N-(2,2,2-trifluoroethyl)-2H-indazol-5-carboxamide] | 33.4 nM | xxx (xxx > 100) | xxx (xxx > 100) |
| COCCNC(=O)c1ccc2nn(CC3CN(C(=O)c4ccc(Oc5ccc(Cl)cc5)cc4)C3)cc2c1C [Example 166, 2-({1-[4-(4-chlorophenoxy)benzoyl]azetidin-3-yl}methyl)-N-(2-methoxyethyl)-4-methyl-2H-indazol-5-carboxamide] | 2.87 nM | xxx (xxx > 100) | xxx (xxx > 100) |
| Cc1c(C(=O)NCC(F)(F)F)ccc2nn(CC3CN(C(=O)c4cc5cc(F)ccc5n4C)C3)cc12 [Example 167, 2-({1-[(5-fluoro-1-methyl-1H-indol-2-yl)carbonyl]azetidin-3-yl}methyl)-4-methyl-N-(2,2,2-trifluoroethyl)-2H-indazol-5-carboxamide] | 13.5 nM | xxx (xxx > 100) | xxx (xxx > 100) |
| COc1ccc2c(c1)cc(C(=O)N1CC(Cn3cc4c(C)c(C(=O)NCC(F)(F)F)ccc4n3)C1)n2C [Example 168, 2-({1-[(5-methoxy-1-methyl-1H-indol-2-yl)carbonyl]azetidin-3-yl}methyl)-4-methyl-N-(2,2,2-trifluoroethyl)-2H-indazol-5-carboxamide] | 29.3 nM | xxx (xxx > 100) | xxx (xxx > 100) |
| COc1ccc2cc(C(=O)N3CC(Cn4cc5c(C)c(C(=O)NCC(F)(F)F)ccc5n4)C3)n(C)c2c1 [Example 169, 2-({1-[(6-methoxy-1-methyl-1H-indol-2-yl)carbonyl]azetidin-3-yl}methyl)-4-methyl-N-(2,2,2-trifluoroethyl)-2H-indazol-5-carboxamide] | 27.7 nM | xxx (xxx > 100) | xxx (xxx > 100) |
| COCCNC(=O)c1ccc2nn(CC3CN(C(=O)c4cc5cc(F)ccc5n4C)C3)cc2c1C [Example 170, 2-({1-[(5-fluoro-1-methyl-1H-indol-2-yl)carbonyl]azetidin-3-yl}methyl)-N-(2-methoxyethyl)-4-methyl-2H-indazol-5-carboxamide] | 4.25 nM | xxx (xxx > 100) | xxx (xxx > 100) |
| COCCNC(=O)c1ccc2nn(CC3CN(C(=O)c4cc5cc(Cl)ccc5n4C)C3)cc2c1C [Example 171, 2-({1-[(5-chloro-1-methyl-1H-indol-2-yl)carbonyl]azetidin-3-yl}methyl)-N-(2-methoxyethyl)-4-methyl-2H-indazol-5-carboxamide] | 3.88 nM | xxx (xxx > 100) | xxx (xxx > 100) |
| COCCNC(=O)c1ccc2nn(CC3CN(C(=O)c4cc5cc(OC)ccc5n4C)C3)cc2c1C [Example 172, N-(2-methoxyethyl)-2-({1-[(5-methoxy-1-methyl-1H-indol-2-yl)carbonyl]azetidin-3-yl}methyl)-4-methyl-2H-indazol-5-carboxamide] | 3.16 nM | xxx (xxx > 100) | xxx (xxx > 100) |
| COCCNC(=O)c1ccc2nn(CC3CN(C(=O)c4cc5ccc(OC)cc5n4C)C3)cc2c1C [Example 173, N-(2-methoxyethyl)-2-({1-[(6-methoxy-1-methyl-1H-indol-2-yl)carbonyl]azetidin-3-yl}methyl)-4-methyl-2H-indazol-5-carboxamide] | 2.71 nM | xxx (xxx > 100) | xxx (xxx > 100) |
| COCCNC(=O)c1ccc2nn(CC3CN(C(=O)c4ccc(Oc5ccc(C(F)(F)F)cn5)cc4)C3)cc2c1C [Example 174, N-(2-methoxyethyl)-4-methyl-2-{[1-(4-{[5-(trifluoromethyl)pyridin-2-yl]oxy}benzoyl)azetidin-3-yl]methyl}-2H-indazol-5-carboxamide] | 6.58 nM | xxx (xxx > 100) | xxx (xxx > 100) |
| COCCNC(=O)c1ccc2nn(CC3CN(C(=O)c4ccc5ccc(OC)cc5c4)C3)cc2c1C [Example 175, N-(2-methoxyethyl)-2-{[1-(7-methoxy-2-naphthoyl)azetidin-3-yl]methyl}-4-methyl-2H-indazol-5-carboxamide] | 8.05 nM | xxx (xxx > 100) | xxx (xxx > 100) |
| COCCNC(=O)c1ccc2nn(CC3CN(C(=O)c4ccc5cc(OC)ccc5c4)C3)cc2c1C [Example 176, N-(2-methoxyethyl)-2-{[1-(6-methoxy-2-naphthoyl)azetidin-3-yl]methyl}-4-methyl-2H-indazol-5-carboxamide] | 7.77 nM | xxx (xxx > 100) | xxx (xxx > 100) |
| Cc1c(C(=O)NCC(F)(F)F)ccc2nn(CC3CN(C(=O)c4ccc(Oc5ccc(C(F)(F)F)cn5)cc4)C3)cc12 [Example 177, 4-methyl-N-(2,2,2-trifluoroethyl)-2-{[1-(4-{[5-(trifluoromethyl)pyridin-2-yl]oxy}benzoyl)azetidin-3-yl]methyl}-2H-indazol-5-carboxamide] | 118 nM | xxx (xxx > 100) | xxx (xxx > 100) |
| COCCNC(=O)c1cc2cn(CC3CN(C(=O)c4ccc(Cl)cc4)C3)nc2cc1C [Example 178, 2-{[1-(4-chlorobenzoyl)azetidin-3-yl]methyl}-N-(2-methoxyethyl)-6-methyl-2H-indazol-5-carboxamide] | 68.3 nM | xxx (xxx > 100) | xxx (xxx > 100) |
| COCCNC(=O)c1cc2cn(CC3CN(C(=O)c4cc(F)cc(F)c4)C3)nc2cc1C [Example 179, 2-{[1-(3,5-Difluorobenzoyl)azetidin-3-yl]methyl}-N-(2-methoxyethyl)-6-methyl-2H-indazol-5-carboxamide] | 2610 nM | x (x: 1-10) | x (x: 1-10) |
| COCCNC(=O)c1cc2cn(CC3CN(C(=O)c4ccc(SC(F)(F)F)cc4)C3)nc2cc1C [Example 180, N-(2-methoxyethyl)-6-methyl-2-[(1-{4-[(trifluoromethyl)sulphanyl]benzoyl}azetidin-3-yl)methyl]-2H-indazol-5-carboxamide] | 17.3 nM | xxx (xxx > 100) | xxx (xxx > 100) |
| COCCNC(=O)c1cc2cn(CC3CN(C(=O)c4ccc(OC(F)(F)F)cc4)C3)nc2cc1C [Example 181, N-(2-methoxyethyl)-6-methyl-2-({1-[4-(trifluoromethoxy)benzoyl]azetidin-3-yl}methyl)-2H-indazol-5-carboxamide] | 35.2 nM | xxx (xxx > 100) | xxx (xxx > 100) |
| COCCNC(=O)c1cc2cn(CC3CN(C(=O)c4ccc(C(F)(F)F)cc4F)C3)nc2cc1C [Example 182, 2-({1-[2-fluoro-4-(trifluoromethyl)benzoyl]azetidin-3-yl}methyl)-N-(2-methoxy-ethyl)-6-methyl-2H-indazol-5-carboxamide] | 64.2 nM | xxx (xxx > 100) | xxx (xxx > 100) |
| COCCNC(=O)c1cc2cn(CC3CN(C(=O)c4ccc(Cl)cc4F)C3)nc2cc1C [Example 183, 2-{[1-(4-chloro-2-fluorobenzoyl)azetidin-3-yl]methyl}-N-(2-methoxyethyl)-6-methyl-2H-indazol-5-carboxamide] | 46.6 nM | xxx (xxx > 100) | xxx (xxx > 100) |
| COCCNC(=O)c1cc2cn(CC3CN(C(=O)c4ccc(C(F)(F)F)c(F)c4)C3)nc2cc1C [Example 184, 2-({1-[3-fluoro-4-(trifluoromethyl)benzoyl]azetidin-3-yl}methyl)-N-(2-methoxy-ethyl)-6-methyl-2H-indazol-5-carboxamide] | 76.8 nM | xxx (xxx > 100) | xxx (xxx > 100) |
| COCCNC(=O)c1cc2cn(CC3CN(C(=O)c4ccc(Cl)c(C(F)(F)F)c4)C3)nc2cc1C [Example 185, 2-({1-[4-chloro-3-(trifluoromethyl)benzoyl]azetidin-3-yl}methyl)-N-(2-methoxy-ethyl)-6-methyl-2H-indazol-5-carboxamide] | 24.8 nM | xxx (xxx > 100) | xxx (xxx > 100) |
